Data published in ChEMBL document CHEMBL1201862, “PubChem BioAssay data set” (2004).
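Test compounds were applied to cells in 96-well plates for 48 hours at 5 doses. Abbreviation: GI50, concentration required for 50% inhibition of growth.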 Calls of active or inactive are those of the source. No stated cut-off is given here; in the data, active = GI50 up to about 1.1 µM and inactive = higher.

Columns and labels:
Experiment in all cases: growth of human tumour cells (NCI), 48 h
[1] = test system: 786-0
[2] = test system: ACHN
[3] = test system: CAKI-1
[4] = test system: COLO 205
[5] = test system: EKVX
[6] = test system: LOX IMVI
[7] = test system: MCF7
[8] = test system: MDA-MB-435
[9] = test system: MOLT-4
[10] = test system: NCI/ADR-RES
[11] = test system: OVCAR-4
[12] = test system: OVCAR-5
[13] = test system: OVCAR-8
[14] = test system: RPMI-8226
[15] = test system: SK-MEL-2
[16] = test system: SK-MEL-5
[17] = test system: UACC-257
[18] = test system: UO-31
[19] = test system: HCC 2998

Measured: GI50

Cc1ccc(S(=O)(=O)NC(CN)C(=O)O)cc1 (stereo not given)
inactive: [1] > 100 µM | [2] > 100 µM | [3] > 100 µM | [4] > 100 µM | [5] > 100 µM | [6] > 100 µM | [7] > 100 µM | [8] > 100 µM | [9] 36.8 µM | [10] > 100 µM | [11] > 100 µM | [12] > 100 µM | [13] > 100 µM | [14] > 100 µM | [15] > 100 µM | [16] > 100 µM | [17] > 100 µM | [18] > 100 µM

CC(C)CC1N=C(OCc2ccccc2)OC1=O (stereo not given)
inactive: [1] > 100 µM | [2] > 100 µM | [3] > 100 µM | [4] > 10 µM | [5] > 100 µM | [6] > 100 µM | [7] > 100 µM | [8] > 100 µM | [9] > 100 µM | [10] > 100 µM | [11] > 100 µM | [12] > 100 µM | [13] > 100 µM | [14] > 100 µM | [15] > 100 µM | [16] 45.7 µM | [17] > 100 µM | [18] > 100 µM

CC(=O)/C(=C/n1c(=S)sc2ccccc21)C(=O)Nc1ccccc1C
inactive: [1] > 100 µM | [2] > 100 µM | [3] 48 µM | [4] > 100 µM | [5] > 100 µM | [19] > 100 µM | [6] > 100 µM | [7] > 100 µM | [8] > 100 µM | [9] > 100 µM | [10] > 100 µM | [11] > 100 µM | [12] > 100 µM | [13] > 100 µM | [15] > 100 µM | [16] 39.7 µM | [17] > 100 µM | [18] 79.6 µM

C[C@H]1ON2CCC[C@@H]2[C@@H]1C(=O)N1C2CC3CCC2(CS1(=O)=O)C3(C)C (stereo not given in full)
inactive: [1] > 100 µM | [2] > 100 µM | [3] > 100 µM | [4] > 100 µM | [5] > 100 µM | [19] > 100 µM | [6] > 100 µM | [7] > 100 µM | [8] > 100 µM | [10] > 100 µM | [11] > 100 µM | [12] > 100 µM | [13] > 100 µM | [15] > 100 µM | [16] > 100 µM | [17] > 100 µM
